Measurements taken from the NIST ThermoML archive (doi:10.1016/j.jct.2019.01.007).
“And” between values parts separate entries of the source, which are not always exact repeats. Equal values may be shown once.

Conditions: Liquid

CCCCCCCCCCCCCCCCCC(=O)OC [methyl octadecanoate]
Conditions	vapor or sublimation pressure
323.15 K	1.964e-05 kPa
325.63 K	2.609e-05 kPa
329.6 K	4.071e-05 kPa
330.56 K	4.58e-05 kPa
332.04 K	5.362e-05 kPa
333.07 K	6.007e-05 kPa
334.55 K	6.999e-05 kPa
335.51 K	7.764e-05 kPa
336.99 K	9.04e-05 kPa
338.02 K	0.0001008 kPa
339.5 K	0.0001184 kPa
340.47 K	0.0001287 kPa
340.98 K	0.0001351 kPa
341.1 K	0.0001377 kPa
341.96 K	0.0001499 kPa
342.97 K	0.0001648 kPa
343.46 K	0.0001744 kPa
343.47 K	0.0001739 kPa
343.6 K	0.0001774 kPa
344.44 K	0.0001914 kPa
345.44 K	0.0002122 kPa
345.93 K	0.0002228 kPa and 0.0002233 kPa
348.42 K	0.0002848 kPa
348.57 K	0.0002879 kPa
350.9 K	0.0003613 kPa
355.89 K	0.0005743 kPa
358.52 K	0.0007236 kPa
360.89 K	0.0008965 kPa
363.49 K	0.001127 kPa
363.98 K	0.00118 kPa
365.92 K	0.001386 kPa
366.47 K	0.00146 kPa
368.46 K	0.001721 kPa
368.97 K	0.001804 kPa
370.93 K	0.002113 kPa
371.46 K	0.002216 kPa
373.44 K	0.002588 kPa
373.95 K	0.00271 kPa
373.96 K	0.002713 kPa
375.45 K	0.003046 kPa
375.93 K	0.003163 kPa
376.44 K	0.003286 kPa
377.44 K	0.003573 kPa
380.44 K	0.004514 kPa and 0.0045 kPa
381.43 K	0.004848 kPa
381.44 K	0.004888 kPa and 0.0049 kPa
382.43 K	0.005241 kPa
383.93 K	0.005905 kPa
383.94 K	0.0059 kPa
385.43 K	0.006597 kPa and 0.006574 kPa
386.43 K	0.007091 kPa and 0.007085 kPa
388.93 K	0.00852 kPa
391.41 K	0.01021 kPa
393.92 K	0.0122 kPa
396.39 K	0.01443 kPa
398.9 K	0.01726 kPa
401.38 K	0.0202 kPa
403.89 K	0.02406 kPa
406.38 K	0.0282 kPa
408.88 K	0.03336 kPa

Transpiration method
Conditions	vapor or sublimation pressure [kPa]
369.05 K	0.00176
371.15 K	0.00202
375.1 K	0.0027
377.05 K	0.00323
380.05 K	0.00389
383.15 K	0.00494
387.15 K	0.00636
390.35 K	0.00731
393.15 K	0.00901
397.5 K	0.013
399.45 K	0.0149
400.35 K	0.0159
401.35 K	0.0166
405.2 K	0.0225
405.6 K	0.0231
408.4 K	0.0279
410.25 K	0.0322
411.15 K	0.0339
412.3 K	0.036
415.2 K	0.0433
416.35 K	0.0424
419.25 K	0.052
420.15 K	0.0563
423.1 K	0.0664
425.15 K	0.0804

CCCCCCCCCCCCCC(=O)OC [methyl tetradecanoate]
Conditions	vapor or sublimation pressure [kPa]
302.71 K	0.0001132
305.3 K	0.0001501
306.14 K	0.0001656
307.76 K	0.0001949
308.58 K	0.0002142
310.23 K	0.0002542
311.21 K	0.0002813
312.71 K	0.0003264
313.7 K	0.0003625
315.17 K	0.0004199
316.16 K	0.0004655
317.65 K	0.0005357
318.63 K	0.0005914
320.12 K	0.0006862
321.26 K	0.0007623
322.58 K	0.0008688
323.72 K	0.0009621
325.2 K	0.001105
326.19 K	0.001216
327.67 K	0.001391
328.66 K	0.001519
330.13 K	0.001743
331.13 K	0.001907
332.6 K	0.002171
333.6 K	0.002378
335.34 K	0.002751
336.07 K	0.002936
337.83 K	0.00341
338.55 K	0.003626
340.31 K	0.004207
341.01 K	0.00447
342.8 K	0.005171
343.48 K	0.005466
345.28 K	0.006333
345.96 K	0.006695
347.76 K	0.007722
348.43 K	0.008134
350.25 K	0.009383
350.91 K	0.009867
352.73 K	0.01136
355.48 K	0.01397
357.96 K	0.0168
360.44 K	0.02019
362.92 K	0.02417
365.4 K	0.02884
367.85 K	0.0341
370.34 K	0.0405
372.83 K	0.04791
375.44 K	0.05668
377.92 K	0.06667
380.41 K	0.0782
382.89 K	0.09144
385.37 K	0.1068
387.86 K	0.1243
390.36 K	0.1443
393.01 K	0.1685
395.5 K	0.1947
397.98 K	0.2245
400.45 K	0.2582
402.96 K	0.297
405.45 K	0.3402
407.93 K	0.3881
410.41 K	0.4428
412.89 K	0.5045
415.45 K	0.5764
417.93 K	0.6527
420.4 K	0.7365
422.88 K	0.8323

Transpiration method
Conditions	vapor or sublimation pressure [kPa]
303.05 K	0.000126
304.65 K	0.000152
306.05 K	0.000172
309.15 K	0.000236
311.15 K	0.00032
313.15 K	0.00039
316.25 K	0.000485
319.25 K	0.000631
322.05 K	0.000891
325.05 K	0.00116
328.25 K	0.00151
331.05 K	0.0019
333.05 K	0.00252
333.15 K	0.00233
334.95 K	0.00275
338.05 K	0.00359
340.05 K	0.00416
343.05 K	0.00536
344.95 K	0.00629
348.05 K	0.00758
350.15 K	0.00963
353.05 K	0.0111
355.15 K	0.0133
358.05 K	0.0168
360.05 K	0.02
363.05 K	0.0242
